Laboratory results from patent US20090099195A1 (ASTRAZENECA AB, priority 2007, published 2009).

Target: T1, hP2X3 (human Purinergic P2X receptors subtype 3), clone B (Homo sapiens, UniProt P56373)
T1 sequence (P56373 1-397): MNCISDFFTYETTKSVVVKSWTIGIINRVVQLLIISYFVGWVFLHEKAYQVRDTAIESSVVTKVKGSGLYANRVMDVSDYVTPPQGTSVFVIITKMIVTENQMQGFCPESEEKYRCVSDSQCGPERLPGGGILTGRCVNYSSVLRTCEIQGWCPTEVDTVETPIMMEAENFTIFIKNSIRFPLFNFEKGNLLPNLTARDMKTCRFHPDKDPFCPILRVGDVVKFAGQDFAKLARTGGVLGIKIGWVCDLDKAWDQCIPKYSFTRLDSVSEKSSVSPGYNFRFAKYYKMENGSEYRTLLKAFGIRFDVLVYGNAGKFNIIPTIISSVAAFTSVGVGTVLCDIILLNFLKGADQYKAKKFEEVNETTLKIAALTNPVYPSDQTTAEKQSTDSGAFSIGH
Test: hP2X3 FLIPR calcium (Fluo-4) antagonist assay, clone B
Conditions: Human P2X3 FLIPR Clone B IC50 (nM), RLE cells expressing hP2X3 clone B (NM_002559); agonist 500 nM α,β-methylene-ATP

Row | SMILES | IC50
1 | CCC(Nc1nc(N2CCN(C(C)=O)CC2)nc2c1CN(C(C)C)C2=O)c1ccc(C(F)(F)F)cc1 (centres unmarked) [Example 32, 2-(4-acetylpiperazin-1-yl)-6-isopropyl-4-({1-[4-(trifluoromethyl)phenyl]propyl}amino)-5,6-dihydro-7H-pyrrolo[3,4-d]pyrimidin-7-one] | 430 nM
2 | CC(C)N1Cc2c(Nc3ccc(Cl)cc3)nc(N3CCN(C(=O)CC4NC(=O)NC4=O)CC3)nc2C1=O (centres unmarked) [Example 31, 5-[2-(4-{4-[(4-chlorophenyl)amino]-6-isopropyl-7-oxo-6,7-dihydro-5H-pyrrolo[3,4-d]pyrimidin-2-yl}piperazin-1-yl)-2-oxoethyl]imidazolidine-2,4-dione] | 270 nM
3 | CC(=O)N1CCN(c2nc(N[C@H](C)c3ccc(C(C)(C)C#N)cc3)c3c(n2)C(=O)N(C(C)C)C3)CC1 [Example 161, (R)-2-(4-(1-(2-(4-acetylpiperazin-1-yl)-6-isopropyl-7-oxo-6,7-dihydro-5H-pyrrolo[3,4-d]pyrimidin-4-ylamino)ethyl)phenyl)-2-methylpropanenitrile] | 720 nM
4 | CC(=O)N1CCN(c2nc(NCc3n[nH]c4c3CCC4)c3c(n2)C(=O)N(C(C)C)C3)CC1 [Example 151, 4-(4-acetylpiperazin-1-yl)-2-(6,7-diazabicyclo[3.3.0]octa-7,9-dien-8-ylmethylamino)-8-propan-2-yl-3,5,8-triazabicyclo[4.3.0]nona-1,3,5-trien-7-one] | 940 nM
5 | CC(C)N1Cc2c(NC3c4cc(F)ccc4CCc4ncccc43)nc(NCCN(C)C)nc2C1=O (centres unmarked) [Example 22, 2-{[2-(dimethylamino)ethyl]amino}-4-[(7-fluoro-10,11-dihydro-5H-benzo[4,5]cyclohepta[1,2-b]pyridin-5-yl)amino]-6-isopropyl-5,6-dihydro-7H-pyrrolo[3,4-d]pyrimidin-7-one] | 270 nM
6 | CC(=O)N1CCN(c2nc(NCc3ccc(C(C)C)cc3)c3c(n2)C(=O)N(C(C)C)C3)CC1 [Example 43, 2-(4-acetylpiperazin-1-yl)-6-isopropyl-4-[(4-isopropylbenzyl)amino]-5,6-dihydro-7H-pyrrolo[3,4-d]pyrimidin-7-one] | 650 nM
7 | CC(C)N1Cc2c(NC(C)(C)Cc3ccc(Cl)cc3)nc(N3CCN(C(=O)C(C)(C)C)CC3)nc2C1=O [Example 125, 4-{[2-(4-chlorophenyl)-1,1-dimethylethyl]amino}-2-[4-(2,2-dimethylpropanoyl)piperazin-1-yl]-6-isopropyl-5,6-dihydro-7H-pyrrolo[3,4-d]pyrimidin-7-one] | 3800 nM
8 | CC(=O)N1CCN(c2nc3c(c(N4CCC[C@@H]4C(=O)OCc4ccc(Cl)cc4)n2)CN(C(C)C)C3=O)CC1 [Example 301, (4-chlorophenyl)methyl (2R)-1-[4-(4-acetylpiperazin-1-yl)-7-oxo-8-propan-2-yl-3,5,8-triazabicyclo[4.3.0]nona-1,3,5-trien-2-yl]pyrrolidine-2-carboxylate] | 2500 nM
9 | CC(=O)N1CCN(c2nc3c(c(N(Cc4ccccc4)Cc4ccc(Cl)cc4)n2)CN(C(C)C)C3=O)CC1 [Example 58, 2-(4-acetylpiperazin-1-yl)-4-[benzyl(4-chlorobenzyl)amino]-6-isopropyl-5,6-dihydro-7H-pyrrolo[3,4-d]pyrimidin-7-one] | 270 nM
10 | CC(=O)N1CCN(c2nc(N[C@H](C)c3ccc(C)c(C)c3)c3c(n2)C(=O)N(C(C)C)C3)CC1 [Example 170, (R)-2-(4-acetylpiperazin-1-yl)-4-(1-(3,4-dimethylphenyl)ethylamino)-6-isopropyl-5H-pyrrolo[3,4-d]pyrimidin-7(6H)-one] | 96 nM
11 | CC(C)C(=O)N1CCN(c2nc(NC(c3ccccc3)c3ccccc3)c3c(n2)C(=O)N(C(C)C)C3)CC1 [Example 80, 4-(Benzhydryl-amino)-2-(4-isobutyryl-piperazin-1-yl)-6-isopropyl-5,6-dihydro-pyrrolo[3,4-d]pyrimidin-7-one] | 190 nM
12 | CC(=O)N1CCN(c2nc3c(c(N4CCC[C@@H]4C(=O)NC4CCCCC4)n2)CN(C(C)C)C3=O)CC1 [Example 302, (2R)-1-[4-(4-acetylpiperazin-1-yl)-7-oxo-8-propan-2-yl-3,5,8-triazabicyclo[4.3.0]nona-1,3,5-trien-2-yl]-N-cyclohexyl-pyrrolidine-2-carboxamide] | 3100 nM
13 | CC(=O)N1CCN(c2nc(N[C@H](C)c3ccc4c(c3)CCC(C)(C)O4)c3c(n2)C(=O)N(C(C)C)C3)CC1 [Example 169, (R)-2-(4-acetylpiperazin-1-yl)-4-(1-(2,2-dimethylchroman-6-yl)ethylamino)-6-isopropyl-5H-pyrrolo[3,4-d]pyrimidin-7(6H)-one] | 51 nM
14 | CC(C)N1Cc2c(NC(c3ccccc3)c3ccc(Cl)cc3)nc(NCCN(C)C)nc2C1=O (centres unmarked) [Example 9, 4-{[(4-chlorophenyl)(phenyl)methyl]amino}-2-{[2-(dimethylamino)ethyl]amino}-6-isopropyl-5,6-dihydro-7H-pyrrolo[3,4-d]pyrimidin-7-one] | 91 nM
15 | CC(C)N1Cc2c(NC(C)(C)Cc3ccc(Cl)cc3)nc(N3CCN(CC(=O)N(C)C)CC3)nc2C1=O [Example 63, 2-[4-(4-{[2-(4-chlorophenyl)-1,1-dimethylethyl]amino}-6-isopropyl-7-oxo-6,7-dihydro-5H-pyrrolo[3,4-d]pyrimidin-2-yl)piperazin-1-yl]-N,N-dimethylacetamide] | 9200 nM
16 | CCOc1ccccc1[C@@H](C)Nc1nc(N2CCN(C(C)=O)CC2)nc2c1CN(C(C)C)C2=O [Example 173, (R)-2-(4-acetylpiperazin-1-yl)-4-(1-(2-ethoxyphenyl)ethylamino)-6-isopropyl-5H-pyrrolo[3,4-d]pyrimidin-7(6H)-one] | 5400 nM
17 | CCOc1ccc(C(C)N(C)c2nc(N3CCN(C(C)=O)CC3)nc3c2CN(C(C)C)C3=O)cc1 (centres unmarked) [Example 157, 2-(4-acetylpiperazin-1-yl)-4-((1-(4-ethoxyphenyl)ethyl)(methyl)amino)-6-isopropyl-5H-pyrrolo[3,4-d]pyrimidin-7(6H)-one] | 390 nM
18 | CCC(=O)N1CCN(c2nc(NC(c3ccccc3)c3ccccc3)c3c(n2)C(=O)N(C(C)C)C3)CC1 [Example 87, 4-(Benzhydryl-amino)-6-isopropyl-2-(4-propionyl-piperazin-1-yl)-5,6-dihydro-pyrrolo[3,4-d]pyrimidin-7-one] | 240 nM
19 | CC(C)N1Cc2c(NC(C)(C)Cc3ccc(Cl)cc3)nc(NCCN3CCCC3=O)nc2C1=O [Example 70, 4-{[2-(4-chlorophenyl)-1,1-dimethylethyl]amino}-6-isopropyl-2-{[2-(2-oxopyrrolidin-1-yl)ethyl]amino}-5,6-dihydro-7H-pyrrolo[3,4-d]pyrimidin-7-one] | 780 nM
20 | CC(=O)NCCNc1nc(NC(c2ccccc2)c2ccccc2)c2c(n1)C(=O)N(C(C)C)C2 [Example 93, N-{2-[4-(Benzhydryl-amino)-6-isopropyl-7-oxo-6,7-dihydro-5H-pyrrolo[3,4-d]pyrimidin-2-ylamino]-ethyl}-acetamide] | 290 nM
21 | CC(=O)N1CCN(c2nc3c(c(N4CCC4Cc4ccccc4)n2)CN(C(C)C)C3=O)CC1 (centres unmarked) [Example 273, 4-(4-acetylpiperazin-1-yl)-2-(2-benzylazetidin-1-yl)-8-propan-2-yl-3,5,8-triazabicyclo[4.3.0]nona-1,3,5-trien-7-one] | 3200 nM
22 | CC(C)N1Cc2c(NC(c3ccccc3)c3ccccc3)nc(NCCN(C)C)nc2C1=O [Example 97, 4-(Benzhydryl-amino)-2-(2-dimethylamino-ethylamino)-6-isopropyl-5,6-dihydro-pyrrolo[3,4-d]pyrimidin-7-one] | 230 nM
23 | CCOc1ccc(CN(CC2CC2)c2nc(N3CCN(C(C)=O)CC3)nc3c2CN(C(C)C)C3=O)cc1 [Example 162, 2-(4-acetylpiperazin-1-yl)-4-((cyclopropylmethyl)(4-ethoxybenzyl)amino)-6-isopropyl-5H-pyrrolo[3,4-d]pyrimidin-7(6H)-one] | 950 nM
24 | CC(=O)N1CCN(c2nc(N[C@H](C)c3ccccc3C(F)(F)F)c3c(n2)C(=O)N(C(C)C)C3)CC1 [Example 226, (R)-2-(4-acetylpiperazin-1-yl)-6-isopropyl-4-(1-(2-(trifluoromethyl)phenyl)ethylamino)-5H-pyrrolo[3,4-d]pyrimidin-7(6H)-one] | 4400 nM
25 | CCOc1ccc([C@@H](C)Nc2nc(N3CCN(C(C)=O)CC3)nc3c2CN(C(C)C)C3=O)c(C)c1 [Example 168, (R)-2-(4-acetylpiperazin-1-yl)-4-(1-(4-ethoxy-2-methylphenyl)ethylamino)-6-isopropyl-5H-pyrrolo[3,4-d]pyrimidin-7(6H)-one] | 80 nM
26 | CC(C)N1Cc2c(NCc3cnc4ccccc4c3)nc(N3CCC(N(C)C)CC3)nc2C1=O [Example 218] | 7800 nM
27 | CC(C)N1Cc2c(nc(NCCN(C)C)nc2N(Cc2ccccc2)Cc2ccccc2)C1=O [Example 106, 4-Dibenzylamino-2-(2-dimethylamino-ethylamino)-6-isopropyl-5,6-dihydro-pyrrolo[3,4-d]-pyrimidin-7-one] | 5300 nM
28 | CC(=O)NCCNc1nc2c(c(N3CCCC3Cc3ccc(Cl)cc3)n1)CN(C(C)C)C2=O (centres unmarked) [Example 45, N-[2-({4-[2-(4-chlorobenzyl)pyrrolidin-1-yl]-6-isopropyl-7-oxo-6,7-dihydro-5H-pyrrolo[3,4-d]pyrimidin-2-yl}amino)ethyl]acetamide] | 2200 nM
29 | CC(C)N1Cc2c(NCc3cnc4ccccc4c3)nc(NC3CN4CCC3CC4)nc2C1=O (centres unmarked) [Example 214, 6-isopropyl-4-(3-quinolylmethylamino)-2-(quinuclidin-3-ylamino)-5H-pyrrolo[3,4-d]pyrimidin-7-one] | 2300 nM
